Data reported in PubChem BioAssay AID1645871.

Settings: pampa; pH 5.0; 30.0 min; 50.0 µM

| Compound | Papp |
| --- | --- |
| CCCCn1cc2c(c1-c1ccc(Br)cc1)c(=O)n(C)c(=O)n2C | > 1000 ×10⁻⁶ cm/s |
| Cn1ncnc1[C@H]1c2n[nH]c(=O)c3cc(F)cc(c23)N[C@@H]1c1ccc(F)cc1 | 46.2 ×10⁻⁶ cm/s |
| CC(C)c1ccc(OCc2nc3c(n2Cc2ccccc2)C(=O)N(CC2CCOCC2)CCN3)cc1 | 643 ×10⁻⁶ cm/s |
| O=C(Nc1ccccc1F)c1nc(S(=O)(=O)Cc2ccccc2F)ncc1Cl | 505 ×10⁻⁶ cm/s |
| Cc1c(Cl)cccc1NC(=O)CNS(=O)(=O)c1cccs1 | 458 ×10⁻⁶ cm/s |
| COc1ccc(-c2noc([C@@H]3Cc4nc[nH]c4CN3C(=O)NC3CCCCC3)n2)cc1 | 58.2 ×10⁻⁶ cm/s |
| CC/C=C\C/C=C\C/C=C\C/C=C\C/C=C\C/C=C\CCC(=O)NCCO | 19.5 ×10⁻⁶ cm/s |
| CN(C)C(=O)c1nc(-c2ccc(Cl)cc2Cl)c2cnccn12 | > 1000 ×10⁻⁶ cm/s |
| COc1ccc(C(=O)N[C@@H]2CCC[C@@H]2C(=O)N2CCC(Cc3ccccc3)CC2)cc1 | > 1000 ×10⁻⁶ cm/s |
| CN1CCCN(C(c2ccccc2)c2ccc(Cl)cc2)CC1 (stereo not drawn) | > 1000 ×10⁻⁶ cm/s |
| CCOc1ccc(C2C(C(=O)Nc3ccccc3OC)=C(C)Nc3c(C(=O)Nc4cccc(C)c4)cnn32)cc1 (stereo not drawn) | 170 ×10⁻⁶ cm/s |
| CCN(CCCOc1ccc2c(Nc3cc(CC(=O)Nc4cccc(F)c4)[nH]n3)ncnc2c1)CCOP(=O)(O)O | 3.64 ×10⁻⁶ cm/s |
| COc1cc2ncnc(Oc3cccc(NC(=O)Nc4cc(C(C)(C)C(F)(F)F)on4)c3)c2cc1OC | 137 ×10⁻⁶ cm/s |
| COc1ccc(C(=O)NC2CCCc3c2[nH]c2c(Cl)cccc32)cc1OC (stereo not drawn) | 483 ×10⁻⁶ cm/s |
| CCC(CC)c1cc([C@H]2CN3CC[C@H]2C[C@@H]3CNC(=O)COc2ccccc2)nc(-c2ccncc2)n1 | 374 ×10⁻⁶ cm/s |
| CCCCOc1ccc(CNC(=O)c2cc3n(n2)CCCN(Cc2ccc(C)cc2)C3=O)cc1 | 867 ×10⁻⁶ cm/s |
| CC(C)c1nc(CN(C)C(=O)N[C@H](C(=O)N[C@@H](Cc2ccccc2)C[C@H](O)[C@H](Cc2ccccc2)NC(=O)OCc2cncs2)C(C)C)cs1 | 844 ×10⁻⁶ cm/s |
| COc1cc(C2CC(=O)Nc3cc4c(cc32)OCCO4)cc(Br)c1OC (stereo not drawn) | > 1000 ×10⁻⁶ cm/s |
| Cc1cccc(-c2noc([C@@H]3Cc4nc[nH]c4CN3)n2)c1 | 169 ×10⁻⁶ cm/s |
| Cc1noc(C)c1Cc1ccc(C(=O)N2CCc3c(nc4cc(-c5ccccc5)[nH]n4c3=O)C2)o1 | 9.03 ×10⁻⁶ cm/s |
| CC(C)Oc1ccc(CNC(=O)C2CCN(C(=O)N3CCOc4ccc(Cl)cc43)CC2)cc1 | 860 ×10⁻⁶ cm/s |
| Cc1ccccc1N(C)C1CN([S+](=O)([O-])c2cccc(C(F)(F)F)c2)C1 | 924 ×10⁻⁶ cm/s |
| Cc1nn2c(c1-c1ccccc1-c1ccccc1)N(Cc1ccc(C(=O)O)s1)CCC2 | 523 ×10⁻⁶ cm/s |
| COc1ccc(CNC(=O)CCCn2nc(C)c3c(C)n(-c4ccc(C)cc4)nc3c2=O)cc1OC | 159 ×10⁻⁶ cm/s |
| CN(C)c1ccc(-c2cc[nH]c(=O)c2N)cc1 | 171 ×10⁻⁶ cm/s |

| Compound | Papp |
| --- | --- |
| CCOc1ccc(OCC)c(NC(=O)C(NS(=O)(=O)c2ccc(Br)s2)c2ccccc2)c1 (stereo not drawn) | 637 ×10⁻⁶ cm/s |
| CNc1sc(-c2cccc3ccccc23)nc1C#N | 268 ×10⁻⁶ cm/s |
| O=C(Nc1ccc(F)cc1F)c1cc(-c2ccc[nH]2)n[nH]1 | 166 ×10⁻⁶ cm/s |
| COc1cc2c(Nc3ccc(Br)cc3F)ncnc2cc1OCC1CCN(C)CC1 | 97.3 ×10⁻⁶ cm/s |
| COc1cc2cc(CN3CCC(N(C)C)C3)c(-c3cccc(Cl)c3)nc2cc1OC (stereo not drawn) | 243 ×10⁻⁶ cm/s |
| CCN(CCN(C)C)C(=O)C1CCN(S(=O)(=O)c2c(C)noc2/C=C/c2ccccc2F)CC1 | 565 ×10⁻⁶ cm/s |
| CCc1ccccc1Nc1ncnc2c1cnn2-c1ccc(Cl)cc1 | 100 ×10⁻⁶ cm/s |
| CCOC(=O)N1CCN(Cc2nc3cc(NC(=O)c4ccc(OC)cc4)ccc3n2C(C)C)CC1 | 808 ×10⁻⁶ cm/s |
| OC1(c2ccc(Cl)cc2)CCN(Cc2c[nH]c3ccccc23)CC1 | 419 ×10⁻⁶ cm/s |
| NC(=O)Nc1cc(-c2ccc(CN3CCOCC3)cc2)sc1C(N)=O | 1.19 ×10⁻⁶ cm/s |
| COc1ccc(CN2CCc3c(c(=O)n4ncc(C(=O)N5CCN(c6ccccc6OC)CC5)c4n3C)C2)cc1 | 324 ×10⁻⁶ cm/s |
| COc1ccc2[nH]c3c(c2c1)CCNC31CCN(S(=O)(=O)c2c(C)noc2C)CC1 | 161 ×10⁻⁶ cm/s |
| COC(=O)c1cccc(NC(=O)c2cnc(-c3ccc(F)cc3)nc2-c2ccncc2)c1 | 671 ×10⁻⁶ cm/s |
| Cc1ccc(Nc2nc(C)c(NC(=O)c3ccc(C)cc3)c(Nc3ccc(C)cc3)n2)cc1 | 6.76 ×10⁻⁶ cm/s |
| COc1ccc(-n2nc(C3CCCN(C(=O)Cc4ccc(F)cc4)C3)[nH]c2=O)cc1 (stereo not drawn) | 524 ×10⁻⁶ cm/s |
| Cc1ccc(S(=O)(=O)N2CCN(C(=O)c3cc4c(s3)CCC4)CC2)cc1 | > 1000 ×10⁻⁶ cm/s |
| Cc1ccc(-c2ccc(CNc3nc(-c4ccccc4C(C)C)nc4ccccc34)cc2)cn1 | 857 ×10⁻⁶ cm/s |
| O=C(NCCCN1CCCC1=O)c1ccc(-c2ncc3cnc(-c4ccccc4)cn23)cc1 | 193 ×10⁻⁶ cm/s |
| CC(=O)Nc1ccc(NC(=O)C(NS(=O)(=O)c2ccc(Br)s2)c2ccccc2)cc1 (stereo not drawn) | 16.2 ×10⁻⁶ cm/s |
| O=C1Nc2ccc(-c3cccc(C(F)(F)F)c3)cc2C(=O)N2CCN(C(=O)COc3ccccc3)C[C@H]12 | 859 ×10⁻⁶ cm/s |
| O=C(CSc1nc(-c2ccc(F)cc2)[nH]c1-c1ccc(F)cc1)Nc1ccc2c(c1)OCCO2 | 585 ×10⁻⁶ cm/s |
| CC(=O)N[C@H]1CN(C2CCN(c3ccc(F)cc3C)CC2)C[C@@H]1C1CC1 | 144 ×10⁻⁶ cm/s |
| C[C@H]1CN(C(=O)Nc2ccc(F)cc2)C[C@@H]1c1nc(-c2ccccc2)no1 | 809 ×10⁻⁶ cm/s |
| CCOc1ccc(CCNC(=O)c2cc3ccccc3n2C)cc1OCC | > 1000 ×10⁻⁶ cm/s |
| COc1ccccc1CNC(=O)CCCn1nc(C)c2c(C)n(-c3ccc(C)cc3)nc2c1=O | 237 ×10⁻⁶ cm/s |

| Compound | Papp |
| --- | --- |
| CCc1[nH]c2ccc(CNC(=O)Cc3cnc4c(C)cccn34)cc2c1C | 32.2 ×10⁻⁶ cm/s |
| COc1ccc(-n2nc(C)c([C@@H]3C=C[C@@H](NCc4ccc(F)cc4)C3)c2C)cc1 | 482 ×10⁻⁶ cm/s |
| CC(C)(C)CN1CCNc2cc(Nc3ccccc3)ncc2C1 | 42.2 ×10⁻⁶ cm/s |
| O=C(O)c1ccc(-c2c[nH]c3ncc(-c4ccccc4)cc23)cc1C1CCCC1 | 400 ×10⁻⁶ cm/s |
| CCOC(=O)NNc1ccc(N(CC)CC(C)O)nn1 (stereo not drawn) | 8.57 ×10⁻⁶ cm/s |
| O=C(O)C1CCN(c2ncc(-c3ccc4c(c3)OCCCO4)s2)CC1 | > 1000 ×10⁻⁶ cm/s |
| Cc1n[nH]c(C)c1CCc1nc2c3ccccc3nc(SCC(=O)Nc3ccc(F)cc3)n2n1 | 383 ×10⁻⁶ cm/s |
| CCc1ccc(OC(C)C(=O)N2CCC(c3nc4ccccc4o3)CC2)cc1 (stereo not drawn) | > 1000 ×10⁻⁶ cm/s |
| Cc1ccc(CNCc2cn[nH]c2-c2ccc(C)cc2)cc1 | 410 ×10⁻⁶ cm/s |
| COc1ccc(-c2cc(-c3cccc(NC(C)=O)c3)cn3cncc23)cn1 | 45.4 ×10⁻⁶ cm/s |
| CCOC(=O)Nc1ccc(NCc2ccc(F)cc2)nc1N | 142 ×10⁻⁶ cm/s |
| COc1ccc(C2c3c(oc4ccc(Cl)cc4c3=O)C(=O)N2CCCN(C)C)cc1OC (stereo not drawn) | 7.76 ×10⁻⁶ cm/s |
| CN1Cc2c(cc(N3CCOCC3)nc2-c2ccccc2OC(F)(F)F)C1=O | > 1000 ×10⁻⁶ cm/s |
| COCCNC(=O)c1ccc(-c2ncc3cnc(-c4cccc(F)c4)cn23)cc1 | 283 ×10⁻⁶ cm/s |
| CCOc1ccc(NC(=O)CC2C(=O)N(c3ccc(F)cc3)C(=O)N2CCc2sccc2C)cc1 (stereo not drawn) | 831 ×10⁻⁶ cm/s |
| COCCNC(=O)[C@H]1C[C@H](Oc2ccccc2)CN1Cc1ccc2[nH]ccc2c1 | 186 ×10⁻⁶ cm/s |
| Oc1ccccc1CN1CCNc2cc(Nc3ccccc3)ncc2C1 | 23.1 ×10⁻⁶ cm/s |
| CC(C)(C)c1ccc(C(=O)Nc2ccc3c(c2)CCCN3C(=O)c2cccs2)cc1 | 884 ×10⁻⁶ cm/s |
| O=S(=O)(c1ccccc1)c1nc(-c2ccc(F)cc2)oc1N1CCCCCC1 | > 1000 ×10⁻⁶ cm/s |
| Cn1c(=O)c2c(-c3ccc(Br)cc3)n(CCc3ccccc3)cc2n(C)c1=O | 591 ×10⁻⁶ cm/s |
| NC(=O)N1CCCC(C(=O)N2CCCN(c3ccc(F)cc3)CC2)C1 (stereo not drawn) | 96.2 ×10⁻⁶ cm/s |
| COc1ccccc1C(=O)Nc1nnc(SCc2cc(=O)c3ccccc3[nH]2)s1 | 402 ×10⁻⁶ cm/s |
| c1cn2cc(-c3ccc4cn[nH]c4c3)nc(Nc3ccc(N4CCOCC4)cc3)c2n1 | > 1000 ×10⁻⁶ cm/s |
